# Test results: paper PMC11760959, “Broad substrate scope C-C oxidation in cyclodipeptides catalysed by a flavin-dependent filament” (Nature Communications, 2025)
# Key:
# [1] = target: NdasCDO subunit B (NdasCDO-B), cyclodipeptide oxidase subunit B from Nocardiopsis dassonvillei (Nocardiopsis dassonvillei) (UniProt D7B1W7); experiment: cryo-EM structure; helical reconstruction of NdasCDO filaments; purified complex dialysed against 20 mM Tris pH 9, 200 mM NaCl, 5 mM DTT, 4 uM on the grid; local refinement with a mask over two dimers of subunit A and two dimers of subunit B
# [2] = tested on: T1, NdasCDO; experiment: UV absorbance, initial rates; type: biochemical, Nocardiopsis dassonvillei; conditions: 50 mM Tris pH 9.0, 200 mM NaCl, 30 °C; O2 as oxidant
# T1 construct: gene Ndas1146; both subunits co-expressed from pRSFDuet-1 in E. coli BL21(DE3), nickel HisTrap purified; A monomer 22 kDa, B monomer 11 kDa; filament of alternating A and B homodimers (A2B2 repeat)
# [3] = target: NdasCDO subunit A (NdasCDO-A), cyclodipeptide oxidase subunit A from Nocardiopsis dassonvillei (Nocardiopsis dassonvillei) (UniProt D7B1W6); experiment: cryo-EM structure; helical reconstruction of NdasCDO filaments; purified complex dialysed against 20 mM Tris pH 9, 200 mM NaCl, 5 mM DTT, 4 uM on the grid; local refinement with a mask over two dimers of subunit A and two dimers of subunit B
Km [2],Compound,also measured
–,"NdasCDO subunit B (NdasCDO-B), cyclodipeptide oxidase subunit B from Nocardiopsis dassonvillei (from UniProt D7B1W7 1-105) (enzyme)",stoichiometry N [1]: 2
800 µM,O=C1N[C@@H](Cc2c[nH]c3ccccc23)C(=O)N[C@H]1CO [cWS],–
4200 µM,O=C1CNC(=O)[C@H](Cc2ccccc2)N1 [cFG],–
–,"NdasCDO subunit A (NdasCDO-A), cyclodipeptide oxidase subunit A from Nocardiopsis dassonvillei (from UniProt D7B1W6 2-157) (enzyme)",stoichiometry N [3]: 2
80 µM,O=C1N[C@@H](Cc2c[nH]c3ccccc23)C(=O)N[C@H]1Cc1ccccc1 [cWF],–
